Data published in ChEMBL document CHEMBL5291721, “A preclinical secondary pharmacology resource illuminates target-adverse drug reaction associations of marketed drugs” (Nat Commun, 2023).

Assays:
[1] = target: Bile salt export pump (Homo sapiens, UniProt O95342); assay type: functional
[2] = target: T1, Adenosine receptor A1 (Homo sapiens, UniProt P30542)
T1 sequence (P30542 whole entry): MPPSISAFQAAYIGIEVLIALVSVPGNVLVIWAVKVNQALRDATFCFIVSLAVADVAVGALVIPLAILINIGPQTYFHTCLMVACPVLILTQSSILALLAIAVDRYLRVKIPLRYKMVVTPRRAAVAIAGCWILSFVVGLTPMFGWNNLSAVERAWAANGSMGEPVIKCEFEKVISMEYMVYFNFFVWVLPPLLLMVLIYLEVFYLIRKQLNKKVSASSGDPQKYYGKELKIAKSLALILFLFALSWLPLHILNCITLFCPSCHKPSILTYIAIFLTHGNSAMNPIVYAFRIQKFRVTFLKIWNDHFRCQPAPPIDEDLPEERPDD

[3] = target: T2, Adenosine receptor A3 (Homo sapiens, UniProt P0DMS8)
T2 sequence (P0DMS8 whole entry): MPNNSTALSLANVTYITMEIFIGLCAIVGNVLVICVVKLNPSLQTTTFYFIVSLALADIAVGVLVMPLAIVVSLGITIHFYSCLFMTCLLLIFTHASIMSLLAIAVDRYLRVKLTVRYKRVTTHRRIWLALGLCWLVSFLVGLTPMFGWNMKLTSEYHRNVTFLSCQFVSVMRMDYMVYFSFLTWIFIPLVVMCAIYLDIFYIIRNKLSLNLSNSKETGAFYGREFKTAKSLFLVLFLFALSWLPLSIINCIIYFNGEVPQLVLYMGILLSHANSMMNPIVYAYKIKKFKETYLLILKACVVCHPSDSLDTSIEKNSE

[4] = target: T3, Alpha-2A adrenergic receptor (Homo sapiens, UniProt P08913); assay type: functional, cell-based
T3 sequence (P08913 whole entry): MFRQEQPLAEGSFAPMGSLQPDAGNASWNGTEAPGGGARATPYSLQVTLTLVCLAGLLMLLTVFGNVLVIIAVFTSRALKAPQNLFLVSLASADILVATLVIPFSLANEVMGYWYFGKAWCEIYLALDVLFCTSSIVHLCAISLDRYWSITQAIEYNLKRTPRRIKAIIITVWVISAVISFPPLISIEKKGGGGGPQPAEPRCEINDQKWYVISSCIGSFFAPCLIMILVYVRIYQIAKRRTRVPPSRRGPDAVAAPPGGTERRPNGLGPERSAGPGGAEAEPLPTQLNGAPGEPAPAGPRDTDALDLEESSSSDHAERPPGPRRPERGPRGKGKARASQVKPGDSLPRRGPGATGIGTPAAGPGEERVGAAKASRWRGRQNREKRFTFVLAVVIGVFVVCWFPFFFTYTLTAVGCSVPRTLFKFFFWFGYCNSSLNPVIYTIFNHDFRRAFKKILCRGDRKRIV

[5] = target: T4, Cholecystokinin receptor type A (Homo sapiens, UniProt P32238)
T4 sequence (P32238 whole entry): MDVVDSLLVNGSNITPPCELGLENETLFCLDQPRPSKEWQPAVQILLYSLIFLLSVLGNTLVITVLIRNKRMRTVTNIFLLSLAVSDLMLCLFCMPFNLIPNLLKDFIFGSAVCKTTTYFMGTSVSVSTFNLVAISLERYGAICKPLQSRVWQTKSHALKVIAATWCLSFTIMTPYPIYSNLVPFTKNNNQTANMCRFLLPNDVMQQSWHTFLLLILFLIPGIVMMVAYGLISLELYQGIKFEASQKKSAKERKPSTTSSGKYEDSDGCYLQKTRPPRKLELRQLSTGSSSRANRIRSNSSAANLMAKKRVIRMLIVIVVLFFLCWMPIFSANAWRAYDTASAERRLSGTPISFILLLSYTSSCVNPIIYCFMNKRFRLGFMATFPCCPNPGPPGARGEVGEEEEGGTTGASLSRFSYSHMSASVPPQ

[6] = target: Growth hormone secretagogue receptor type 1 (Homo sapiens, UniProt Q92847)
Growth hormone secretagogue receptor type 1, sequence (Q92847 whole entry): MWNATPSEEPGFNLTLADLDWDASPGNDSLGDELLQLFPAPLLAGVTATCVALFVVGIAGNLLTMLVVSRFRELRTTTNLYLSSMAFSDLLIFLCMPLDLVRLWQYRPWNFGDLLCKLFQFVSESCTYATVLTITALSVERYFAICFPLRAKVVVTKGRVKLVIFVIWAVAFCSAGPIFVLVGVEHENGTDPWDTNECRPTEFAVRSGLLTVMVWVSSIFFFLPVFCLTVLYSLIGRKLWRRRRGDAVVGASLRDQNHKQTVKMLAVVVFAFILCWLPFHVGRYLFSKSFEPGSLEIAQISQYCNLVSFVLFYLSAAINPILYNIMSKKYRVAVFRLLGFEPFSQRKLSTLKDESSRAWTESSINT

[7] = target: T5, 5-hydroxytryptamine receptor 1A (Homo sapiens, UniProt P08908); assay type: functional, cell-based
T5 sequence (P08908 whole entry): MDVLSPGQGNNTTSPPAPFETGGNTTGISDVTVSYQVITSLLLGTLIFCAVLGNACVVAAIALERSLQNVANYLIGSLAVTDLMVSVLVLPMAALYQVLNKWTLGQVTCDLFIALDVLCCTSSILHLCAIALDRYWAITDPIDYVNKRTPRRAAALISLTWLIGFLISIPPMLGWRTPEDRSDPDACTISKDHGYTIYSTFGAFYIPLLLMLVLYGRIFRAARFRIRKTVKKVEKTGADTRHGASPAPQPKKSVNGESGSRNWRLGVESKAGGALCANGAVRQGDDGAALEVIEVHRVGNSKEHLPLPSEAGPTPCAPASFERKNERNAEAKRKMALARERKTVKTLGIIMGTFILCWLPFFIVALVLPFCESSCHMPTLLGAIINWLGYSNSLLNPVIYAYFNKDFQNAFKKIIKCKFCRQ

[8] = target: T6, Prostaglandin G/H synthase 1 (Rattus norvegicus, UniProt Q63921); assay type: functional
T6 sequence (Q63921 whole entry): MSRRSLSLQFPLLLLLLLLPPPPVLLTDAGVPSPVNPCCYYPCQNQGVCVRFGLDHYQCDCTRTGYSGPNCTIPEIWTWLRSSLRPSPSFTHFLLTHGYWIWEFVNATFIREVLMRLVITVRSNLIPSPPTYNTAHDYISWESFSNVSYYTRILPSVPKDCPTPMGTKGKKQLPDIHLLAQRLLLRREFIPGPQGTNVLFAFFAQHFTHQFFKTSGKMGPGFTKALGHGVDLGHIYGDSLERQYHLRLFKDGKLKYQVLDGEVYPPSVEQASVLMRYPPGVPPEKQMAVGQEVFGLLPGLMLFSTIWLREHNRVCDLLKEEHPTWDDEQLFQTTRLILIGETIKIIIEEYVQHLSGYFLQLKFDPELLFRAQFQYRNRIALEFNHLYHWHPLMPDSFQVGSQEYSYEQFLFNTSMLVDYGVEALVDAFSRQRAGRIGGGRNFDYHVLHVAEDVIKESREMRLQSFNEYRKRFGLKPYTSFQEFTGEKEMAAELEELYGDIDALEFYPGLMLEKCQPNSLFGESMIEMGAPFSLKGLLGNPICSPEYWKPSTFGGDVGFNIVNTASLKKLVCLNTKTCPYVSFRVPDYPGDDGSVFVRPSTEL

[9] = target: Sodium-dependent dopamine transporter (Homo sapiens, UniProt Q01959)
Sodium-dependent dopamine transporter, sequence (Q01959 whole entry): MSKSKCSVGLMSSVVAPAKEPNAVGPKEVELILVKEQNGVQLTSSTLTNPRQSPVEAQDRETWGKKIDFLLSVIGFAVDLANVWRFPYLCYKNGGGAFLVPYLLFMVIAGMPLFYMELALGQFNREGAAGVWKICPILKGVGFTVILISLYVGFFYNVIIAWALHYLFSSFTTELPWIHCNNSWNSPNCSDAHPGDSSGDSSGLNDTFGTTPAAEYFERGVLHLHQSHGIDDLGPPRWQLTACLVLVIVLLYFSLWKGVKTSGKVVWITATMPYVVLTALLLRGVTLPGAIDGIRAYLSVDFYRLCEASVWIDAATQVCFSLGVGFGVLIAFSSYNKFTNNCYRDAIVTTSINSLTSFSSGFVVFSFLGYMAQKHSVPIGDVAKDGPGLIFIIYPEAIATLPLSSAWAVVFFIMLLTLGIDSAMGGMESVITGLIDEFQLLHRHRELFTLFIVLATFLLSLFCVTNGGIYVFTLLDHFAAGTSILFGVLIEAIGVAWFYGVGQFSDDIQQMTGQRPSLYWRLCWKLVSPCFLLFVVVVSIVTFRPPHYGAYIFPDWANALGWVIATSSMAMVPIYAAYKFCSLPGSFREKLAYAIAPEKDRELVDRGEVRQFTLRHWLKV
Also: assay procedure not described here.

Bile salt export pump, sequence (O95342 whole entry): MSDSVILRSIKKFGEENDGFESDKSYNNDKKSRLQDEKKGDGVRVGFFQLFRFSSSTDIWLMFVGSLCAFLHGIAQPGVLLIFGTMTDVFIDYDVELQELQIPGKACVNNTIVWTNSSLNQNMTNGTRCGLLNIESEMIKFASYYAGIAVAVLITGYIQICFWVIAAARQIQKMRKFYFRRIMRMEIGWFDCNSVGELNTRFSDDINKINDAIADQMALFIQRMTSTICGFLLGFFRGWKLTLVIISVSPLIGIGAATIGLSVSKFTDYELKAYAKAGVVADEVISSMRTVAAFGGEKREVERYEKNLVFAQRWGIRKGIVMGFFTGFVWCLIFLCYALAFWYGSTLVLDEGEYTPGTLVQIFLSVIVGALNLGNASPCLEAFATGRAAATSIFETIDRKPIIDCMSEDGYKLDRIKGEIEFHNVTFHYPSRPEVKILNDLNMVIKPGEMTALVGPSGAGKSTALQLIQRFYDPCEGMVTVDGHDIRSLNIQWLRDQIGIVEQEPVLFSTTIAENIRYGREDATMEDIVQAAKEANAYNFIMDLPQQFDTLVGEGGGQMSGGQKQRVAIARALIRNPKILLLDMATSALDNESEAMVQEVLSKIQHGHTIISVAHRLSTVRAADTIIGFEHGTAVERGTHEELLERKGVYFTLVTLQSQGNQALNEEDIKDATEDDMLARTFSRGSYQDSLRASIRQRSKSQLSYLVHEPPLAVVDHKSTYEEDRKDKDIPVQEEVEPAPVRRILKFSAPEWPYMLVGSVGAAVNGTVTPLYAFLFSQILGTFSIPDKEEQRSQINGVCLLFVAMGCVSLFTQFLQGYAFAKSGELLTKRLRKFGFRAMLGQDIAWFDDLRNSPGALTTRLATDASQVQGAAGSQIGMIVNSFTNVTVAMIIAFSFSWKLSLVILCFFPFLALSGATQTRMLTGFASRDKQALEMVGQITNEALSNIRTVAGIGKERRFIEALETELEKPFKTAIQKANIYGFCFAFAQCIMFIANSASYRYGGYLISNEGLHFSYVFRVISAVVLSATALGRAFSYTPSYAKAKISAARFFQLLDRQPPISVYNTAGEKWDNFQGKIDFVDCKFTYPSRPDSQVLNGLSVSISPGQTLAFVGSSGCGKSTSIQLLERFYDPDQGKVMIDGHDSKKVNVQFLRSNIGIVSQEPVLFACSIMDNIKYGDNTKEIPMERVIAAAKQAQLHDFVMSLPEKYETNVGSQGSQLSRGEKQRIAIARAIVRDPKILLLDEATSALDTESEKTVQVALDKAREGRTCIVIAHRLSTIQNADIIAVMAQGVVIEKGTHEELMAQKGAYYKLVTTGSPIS

SMILES	AC50 [1] [µM]	AC50 [2] [µM]	AC50 [3] [µM]	AC50 [4] [µM]	AC50 [5] [µM]	AC50 [6] [µM]	AC50 [7] [µM]	AC50 [8] [µM]	AC50 [9] [µM]
NC(=O)c1ncn([C@@H]2O[C@H](CO)[C@@H](O)[C@H]2O)c1O [MIZORIBINE]	> 300	> 30	> 30	> 30	> 30	> 30	> 30	> 30	> 30
COC(=O)C1=C(C)NC(C)=C(C(=O)OCC(C)C)C1c1ccccc1[N+](=O)[O-] (stereo unspecified) [NISOLDIPINE]	8	20.4	0.614	> 10	> 10	> 10	> 10	> 10	> 10
NC1=NC(=O)C(c2ccccc2)O1 (stereo unspecified) [PEMOLINE]	> 300	> 30	> 30	> 10	> 30	> 30	> 10	> 30	3.46
CCc1ccc(CCOc2ccc(CC3SC(=O)NC3=O)cc2)nc1 (stereo unspecified) [PIOGLITAZONE]	0.1	> 30	> 30	> 10	> 30	> 30	> 10	> 30	> 30
CC(C(=O)O)c1ccc(N2CC=CC2)c(Cl)c1 (stereo unspecified) [PIRPROFEN]	270	> 30	> 30	> 10	> 30	> 30	> 10	> 30	> 10
CC[C@H](C)C(=O)O[C@H]1C[C@H](O)C=C2C=C[C@H](C)[C@H](CC[C@@H](O)C[C@@H](O)CC(=O)O)[C@H]21 [PRAVASTATIN]	> 100	> 30	> 30	> 30	> 30	> 30	> 30	> 30	> 30
NC(=O)c1cnccn1 [PYRAZINAMIDE]	> 300	> 30	3.86	> 30	> 30	> 30	> 30	> 30	> 30
CC(C(=O)O)c1ccc(C(=O)c2cccs2)cc1 (stereo unspecified) [SUPROFEN]	> 300	> 10	> 10	> 10	> 10	> 10	> 10	0.284	> 10
CS(=O)(=O)c1ccc([C@@H](O)[C@@H](CO)NC(=O)C(Cl)Cl)cc1 [THIAMPHENICOL]	> 300	> 30	> 30	> 30	> 30	> 30	> 30	> 30	> 30
